PubChem BioAssay (NCI)
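Assay format: 96-well plates, 48-hour exposure. The concentration for full growth arrest is given as TGI.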

What was measured:
Assay in all cases: inhibition of tumour cell growth, NCI panel, 48 h
[1] = test system: OVCAR-4 ovarian
[2] = test system: NCI-H23 lung
[3] = test system: NCI-H522 lung
[4] = test system: U251 CNS
[5] = test system: RPMI-8226 leukemia
[6] = test system: HCC-2998 colon
[7] = test system: A498 renal
[8] = test system: MOLT-4 leukemia
[9] = test system: OVCAR-3 ovarian
[10] = test system: NCI/ADR-RES ovarian
[11] = test system: 786-0 renal
[12] = test system: M14 melanoma
[13] = test system: TK-10 renal
[14] = test system: SK-MEL-28 melanoma
[15] = test system: MALME-3M melanoma
[16] = test system: MDA-MB-231 breast
[17] = test system: UACC-257 melanoma
[18] = test system: MDA-N
[19] = test system: LOX IMVI melanoma
[20] = test system: CAKI-1 renal
[21] = test system: HOP-62 NSCLC
[22] = test system: HOP-92 NSCLC
[23] = test system: HCT-15 colon
[24] = test system: UO-31 renal
[25] = test system: SR leukemia
[26] = test system: SW-620 colon
[27] = test system: SNB-75 CNS
[28] = test system: ACHN renal
[29] = test system: HL-60(TB) leukemia
[30] = test system: SF-268 CNS
[31] = test system: NCI-H460 lung
[32] = test system: IGROV1 ovarian
[33] = test system: PC-3 prostate
[34] = test system: RXF 393 renal
[35] = test system: SN12C renal
[36] = test system: SK-MEL-2 melanoma
[37] = test system: SF-539 CNS
[38] = test system: NCI-H226 lung
[39] = test system: A549 NSCLC
[40] = test system: DU-145 prostate
[41] = test system: EKVX NSCLC
[42] = test system: BT-549 breast
[43] = test system: T-47D breast
[44] = test system: SK-MEL-5 melanoma
[45] = test system: HCT-116 colon
[46] = test system: COLO 205 colon
[47] = test system: HS 578T breast
[48] = test system: SK-OV-3 ovarian
[49] = test system: SF-295 CNS
[50] = test system: HT29 colon
[51] = test system: OVCAR-5 ovarian
[52] = test system: K-562 leukemia
[53] = test system: SNB-19 CNS
[54] = test system: MCF7 breast
[55] = test system: OVCAR-8 ovarian
[56] = test system: MDA-MB-435
[57] = test system: CCRF-CEM leukemia
[58] = test system: KM12 colon
[59] = test system: UACC-62 melanoma

CCCCCCCCCCCCP(=O)(O)OCC(N)C(=O)O (centres undefined)
TGI [1]: > 100 µM
TGI [2]: > 100 µM
TGI [3]: > 100 µM
TGI [4]: 24.8 µM
TGI [5]: 91.9 µM
TGI [6]: > 100 µM
TGI [7]: 70.6 µM
TGI [8]: 61.7 µM
TGI [9]: 36.5 µM
TGI [10]: > 100 µM
TGI [11]: > 100 µM
TGI [12]: > 100 µM
TGI [13]: > 100 µM
TGI [14]: > 100 µM
TGI [15]: > 100 µM
TGI [16]: 65.3 µM
TGI [17]: > 100 µM
TGI [18]: 55.4 µM
TGI [19]: > 100 µM
TGI [20]: > 100 µM
TGI [21]: 31.6 µM
TGI [22]: 71.6 µM
TGI [23]: 41.3 µM
TGI [24]: 26 µM
TGI [25]: > 100 µM
TGI [26]: > 100 µM
TGI [27]: 40.3 µM
TGI [28]: > 100 µM
TGI [29]: 36.1 µM
TGI [30]: > 100 µM
TGI [31]: 89.6 µM
TGI [32]: > 100 µM
TGI [33]: 36.9 µM
TGI [34]: > 100 µM
TGI [35]: 42.4 µM
TGI [36]: 91.9 µM
TGI [37]: 47.4 µM
TGI [38]: > 100 µM
TGI [39]: > 100 µM
TGI [40]: > 100 µM
TGI [41]: > 100 µM
TGI [42]: > 100 µM
TGI [43]: > 100 µM
TGI [44]: > 100 µM
TGI [45]: 30.3 µM
TGI [46]: > 100 µM
TGI [47]: 58.2 µM
TGI [48]: 73.3 µM
TGI [49]: 41.4 µM
TGI [50]: > 100 µM
TGI [51]: > 100 µM
TGI [52]: > 100 µM
TGI [53]: 44.7 µM
TGI [54]: > 100 µM
TGI [55]: > 100 µM
TGI [56]: 34.6 µM

COC(=O)[C@@H]1C[C@]2(CC=C(C)C)c3ccccc3N(S(=O)(=O)c3ccccc3)[C@@H]2N1C(=O)OC
TGI [1]: > 100 µM
TGI [2]: > 100 µM
TGI [3]: 67.3 µM
TGI [4]: 41.8 µM
TGI [5]: 42.6 µM
TGI [6]: 40.1 µM
TGI [8]: > 100 µM
TGI [57]: > 100 µM
TGI [9]: > 100 µM
TGI [10]: 83.1 µM
TGI [11]: > 100 µM
TGI [13]: > 100 µM
TGI [14]: > 100 µM
TGI [15]: > 100 µM
TGI [16]: > 100 µM
TGI [17]: 51.6 µM
TGI [18]: > 100 µM
TGI [19]: > 100 µM
TGI [20]: > 100 µM
TGI [21]: > 100 µM
TGI [22]: > 100 µM
TGI [23]: 55.8 µM
TGI [24]: > 100 µM
TGI [25]: 99.3 µM
TGI [26]: > 100 µM
TGI [27]: 38.2 µM
TGI [28]: > 100 µM
TGI [29]: 33.5 µM
TGI [30]: 99.3 µM
TGI [31]: 94 µM
TGI [33]: > 100 µM
TGI [34]: 43.9 µM
TGI [35]: > 100 µM
TGI [36]: 34.3 µM
TGI [37]: 86.3 µM
TGI [38]: 89.1 µM
TGI [39]: > 100 µM
TGI [40]: > 100 µM
TGI [41]: 27.5 µM
TGI [42]: > 100 µM
TGI [43]: > 100 µM
TGI [44]: 26 µM
TGI [58]: > 100 µM
TGI [45]: > 100 µM
TGI [46]: > 100 µM
TGI [47]: 66.9 µM
TGI [48]: > 100 µM
TGI [49]: > 100 µM
TGI [50]: > 100 µM
TGI [59]: 51.8 µM
TGI [51]: > 100 µM
TGI [52]: > 100 µM
TGI [53]: > 100 µM
TGI [54]: 48.5 µM
TGI [55]: 86.5 µM
TGI [56]: 45 µM

CP(C)(=S)P(C)(C)=S
TGI [1]: > 100 µM
TGI [2]: > 100 µM
TGI [3]: > 100 µM
TGI [4]: > 100 µM
TGI [5]: > 100 µM
TGI [6]: > 100 µM
TGI [8]: > 100 µM
TGI [57]: > 100 µM
TGI [10]: > 100 µM
TGI [11]: > 100 µM
TGI [12]: > 100 µM
TGI [13]: > 100 µM
TGI [14]: > 100 µM
TGI [15]: > 100 µM
TGI [16]: > 100 µM
TGI [17]: > 100 µM
TGI [18]: > 100 µM
TGI [19]: > 100 µM
TGI [20]: > 100 µM
TGI [21]: > 100 µM
TGI [23]: > 100 µM
TGI [24]: > 100 µM
TGI [25]: > 100 µM
TGI [26]: > 100 µM
TGI [27]: > 100 µM
TGI [28]: > 100 µM
TGI [29]: > 100 µM
TGI [30]: > 100 µM
TGI [31]: > 100 µM
TGI [32]: > 100 µM
TGI [33]: > 100 µM
TGI [34]: > 100 µM
TGI [35]: > 100 µM
TGI [36]: > 100 µM
TGI [37]: > 100 µM
TGI [38]: > 100 µM
TGI [39]: > 100 µM
TGI [40]: > 100 µM
TGI [41]: > 100 µM
TGI [42]: > 100 µM
TGI [43]: > 100 µM
TGI [44]: > 100 µM
TGI [45]: > 100 µM
TGI [46]: > 100 µM
TGI [47]: > 100 µM
TGI [48]: > 100 µM
TGI [49]: > 100 µM
TGI [50]: > 100 µM
TGI [59]: > 100 µM
TGI [51]: > 100 µM
TGI [52]: > 100 µM
TGI [53]: > 100 µM
TGI [54]: > 100 µM
TGI [55]: > 100 µM

CCN(CC(COc1ccc2c(c1)[n+]([O-])nc(N)[n+]2[O-])OC(C)=O)C(C)=O (centres undefined)
TGI [1]: > 100 µM
TGI [2]: > 100 µM
TGI [3]: 56.3 µM
TGI [4]: > 100 µM
TGI [5]: > 100 µM
TGI [7]: > 100 µM
TGI [8]: > 100 µM
TGI [57]: > 100 µM
TGI [9]: > 100 µM
TGI [10]: > 100 µM
TGI [11]: > 100 µM
TGI [12]: > 100 µM
TGI [13]: > 100 µM
TGI [14]: > 100 µM
TGI [16]: > 100 µM
TGI [17]: > 100 µM
TGI [18]: > 100 µM
TGI [19]: > 100 µM
TGI [20]: > 100 µM
TGI [21]: > 100 µM
TGI [23]: > 100 µM
TGI [24]: > 100 µM
TGI [25]: > 100 µM
TGI [26]: > 100 µM
TGI [27]: > 100 µM
TGI [28]: > 100 µM
TGI [29]: > 100 µM
TGI [30]: > 100 µM
TGI [32]: > 100 µM
TGI [33]: > 100 µM
TGI [35]: > 100 µM
TGI [36]: > 100 µM
TGI [37]: > 100 µM
TGI [38]: > 100 µM
TGI [39]: > 100 µM
TGI [41]: > 100 µM
TGI [42]: > 100 µM
TGI [43]: > 100 µM
TGI [44]: > 100 µM
TGI [58]: > 100 µM
TGI [45]: > 100 µM
TGI [46]: > 100 µM
TGI [47]: > 100 µM
TGI [48]: 74.9 µM
TGI [49]: > 100 µM
TGI [50]: > 100 µM
TGI [59]: > 100 µM
TGI [51]: > 100 µM
TGI [52]: > 100 µM
TGI [53]: > 100 µM
TGI [54]: > 100 µM
TGI [55]: > 100 µM
TGI [56]: > 100 µM
